# Reference: US20120177567A1, “Methods of Treating Pediatric Acute Lymphoblastic Leukemia with an Anti-CD22 Immunotoxin” (priority 2010, published 2012)
# Read-outs that look alike come from different tables or passages of the source.
# How the values were obtained:
# B-lineage ALL cells = assay: cells; details: Homo sapiens
# Excerpt: Blood and bone marrow samples were obtained from 35 patients with B-lineage ALL (Table SI) treated at the National Cancer Institute (NCI), St Jude Children's Research Hospital (SJCRH) or Johns Hopkins Hospital (JHH) with informed consent. The majority (n=22) were obtained from individuals with multiply relapsed ALL who were referred to the NCI for Phase I clinical trial participation. Thirteen patient samples from initial diagnosis were randomly selected from those available in the tumor banks at SJCRH and JHH. Thirty-three cases were characterized as pre-B ALL by flow cytometry and two as Burkitt-type/mature B-cell ALL. In all cases, >80% blasts expressed CD19 and CD22 antigens by flow cytometry. Cells were cryopreserved in RPMI-1640 medium with 10% fetal bovine serum (FBS) and 10% dimethyl sulfoxide.
# Briefly, human bone marrow stromal cells that had been immortalized by telomerase transfection (developed at St Jude Children's Research Hospital) were cultured in RPMI-1640 medium (Invitrogen, Carlsbad, Calif., USA) with 10% fetal calf serum (Sigma-Aldrich, St Louis, Mo., USA). 2×10^4 Stromal cells were plated into each well of flat-bottomed 96-well plates and cultured until confluent. On day 1 of the assay, ALL cells were resuspended in RPMI-1640 medium, 10% heat-inactivated FBS, glutamine (1×) and sodium pyruvate (1×). 3×10^5 ALL cells were added to each well of stroma-coated plates. […] SS1P (50 ng/mL), an antimesothelin Pseudomonas immunotoxin, was used as a negative control. The cytotoxicity of dexamethasone (10 μmol/L) was also tested in this assay. Cells were incubated for a further 72 h in a humidified atmosphere at 37° C. with 5% CO2.
# The cells were harvested by vigorous pipetting, transferred to Falcon tubes (Cat. No. 352052; BD Biosciences, San Jose, Calif., USA) and labelled with mouse anti-human CD19 antibody conjugated to fluorescein isothiocyanate (Cat. No. 555412; BD Pharmingen, San Jose, Calif., USA). […] The cells were analysed with a FACScalibur flow cytometer in combination with CellQuest (Becton Dickinson, Franklin Lakes, N.J., USA) and FlowJo software (Tree Star Inc., Ashland, Oreg., USA).
# Viability was assessed by setting gates based on the light scatter properties of the blasts. Due to spontaneous cell death, the relative percentage of viable cells at the end of the assay was calculated using the following formula: (no. of CD19^+ viable cells recovered in test well/no. of CD19^+ viable cells in untreated well×100). […]
# An exact Wilcoxon rank sum test was used to determine the statistical significance of the difference in unpaired observations between two groups of pediatric patients. […] Correlations between parameters were evaluated using Spearman rank correlation analysis.
# [1] = system: human bone marrow stromal cells; details: 10 μmol/L, 72 h
# Description: 2×10^4 Stromal cells were plated into each well of flat-bottomed 96-well plates and cultured until confluent. On day 1 of the assay, ALL cells were resuspended in RPMI-1640 medium, 10% heat-inactivated FBS, glutamine (1×) and sodium pyruvate (1×). 3×10^5 ALL cells were added to each well of stroma-coated plates. […] SS1P (50 ng/mL), an antimesothelin Pseudomonas immunotoxin, was used as a negative control. The cytotoxicity of dexamethasone (10 μmol/L) was also tested in this assay. Cells were incubated for a further 72 h in a humidified atmosphere at 37° C. with 5% CO2.
# At the end of the assay, the stromal cells were incubated with WST-1.
smiles,measurement,setting,value
"C[C@@H]1C[C@H]2[C@@H]3CCC4=CC(=O)C=C[C@]4(C)[C@@]3(F)[C@@H](O)C[C@]2(C)[C@@]1(O)C(=O)CO [dexamethasone, Dexamethasone]",viability at 10 µM,"B-lineage ALL cells; 72 h, read-out: percentage of viable ALL cells, range, 10 μmol/l, 72 h",4 to 158%
same,viability at 10 µM,"B-lineage ALL cells; read-out: percentage of viable ALL cells, median, 10 μmol/l, ALL samples from diagnosis",29%
same,viability at 10 µM,"B-lineage ALL cells; read-out: percentage of viable ALL cells, median, 10 μmol/l, all samples",40%
same,viability at 10 µM,"B-lineage ALL cells; read-out: percentage of viable ALL cells, median, 10 μmol/l, relapse samples",42%
same,stromal cells compared to untreated controls (WST-1),[1],no difference
